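Assay format: 96-well plates, 48-hour exposure. Here, GI50 denotes the concentration required for 50% inhibition of growth. The concentration for full growth arrest is given as TGI.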
Key:
Assay in all cases: NCI tumour cell line growth inhibition, 48 h
ACHN renal = system: ACHN renal
HCC-2998 colon = system: HCC-2998 colon
HOP-92 NSCLC = system: HOP-92 NSCLC
IGROV1 ovarian = system: IGROV1 ovarian
K-562 leukemia = system: K-562 leukemia
NCI-H460 lung = system: NCI-H460 lung
OVCAR-5 ovarian = system: OVCAR-5 ovarian
SN12C renal = system: SN12C renal
SW-620 colon = system: SW-620 colon
UO-31 renal = system: UO-31 renal

## Clc1ccc(C2CC(c3cccc(Nc4ccncc4)c3)=NN2c2cc(Cl)cc(Cl)c2)cc1 (stereo not given)
ACHN renal
  GI50: 1610 nM
  TGI: 2980 nM
HCC-2998 colon
  GI50: 1560 nM
  TGI: 3040 nM
HOP-92 NSCLC
  GI50: 1510 nM
  TGI: 2990 nM
IGROV1 ovarian
  GI50: 1710 nM
  TGI: 3320 nM
K-562 leukemia
  GI50: 2550 nM
  TGI: 6120 nM
NCI-H460 lung
  GI50: 1970 nM
  TGI: 4030 nM
OVCAR-5 ovarian
  GI50: 1780 nM
  TGI: 3330 nM
SN12C renal
  GI50: 1730 nM
  TGI: 3290 nM
SW-620 colon
  GI50: 1840 nM
  TGI: 3860 nM
UO-31 renal
  GI50: 1340 nM
  TGI: 2770 nM

Source: PubChem BioAssay (NCI)
